In patent publication US20140005177A1, “PYRIDINYL- AND PYRAZINYL-METHYLOXY-ARYL DERIVATIVES USEFUL AS INHIBITORS OF SPLEEN TYROSINE KINASE (SYK)” (GLAXO GROUP LIMITED, priority 2011, published 2014):
Where a name gives a salt, the structure may show the parent alone. Read-outs that look alike come from different tables or passages of the source.

Columns and labels:
Ramos B cells = test: Ramos pErk assay (anti-IgM stimulated B cells, pErk MSD); assay type: cell-based; settings: Homo sapiens, anti-IgM 5 μg/ml, pErk readout, read-out: average pIC50 (converted)
Method: Ramos B cells (human B cells of Burkitt's Lymphoma) are stimulated using anti-IgM. […] The subsequent autophosphorylation of Syk leads to initiation of a signalling cascade resulting in B cell activation via the Erk MAP Kinase pathway. As a result Erk is phosphorylated and following cell lysis is detected by an immune capture assay.
Cells were plated at a density of 2.5×10^5/well in a volume of 25 μl assay medium (RPMI containing 10% heat inactivated foetal calf serum, 1% L-glutamine) in 96 v-well polypropylene plates. 25 μl appropriately diluted compound solution was added and the plate incubated for 30 min at 37° C. with 5% CO2. Cells were stimulated with 5 μl Fab′2 fragments of goat anti-human IgM (5 μg/ml final) for 7 min at 37° C. Cells are lysed by the addition of 55 μL 2×RIPA lysis buffer for 2 h at 4° C. Lysate may be frozen at this point at −80° C.
50 μl cell lysate was transferred to a 96 well MSD plate coated with anti-pErk1/2 (Thr/Tyr: 202/204; 185/187) capture antibody and incubated for 16 hours at 4° C. or 3 hours at room temperature. The plate was washed and an anti-pErk detection antibody added (25 μl/well) for 1 hour at room temperature. This was removed, 150 μL MSD read buffer added and the resultant electrochemiluminescence signal measured.
Compound was prepared as a 10 mM stock in DMSO and a dilution series prepared in DMSO using 9 successive 5-fold dilutions. This dilution series was diluted a further 1:100 with assay medium to give the final concentration range to be tested of 5×10^−5 to 2.56×10^−11M. Compound dilutions were prepared using the Biomek 2000 and Biomek Nx automated robotic pipetting systems.

[1] = cited from earlier work

| Compound | IC50 (Ramos B cells; Ramos) [nM] | other results |
| --- | --- | --- |
| COc1cccc(OCc2cc(C)ccn2)c1-c1ccc2c(c1)CCNCC2 [Example 2, 7-(2-(methyloxy)-6-{[(4-methyl-2-pyridinyl)methyl]oxy}phenyl)-2,3,4,5-tetrahydro-1H-3-benzazepine] | 158 to 6310 | IC50 (Ramos B cells): ≤ 1000 nM |
| COc1ccc(-c2ccc3c(c2)CCNCC3)c(OCc2cc(C)ccn2)c1 [Example 3, 7-(4-(methyloxy)-2-{[(4-methyl-2-pyridinyl)methyl]oxy}phenyl)-2,3,4,5-tetrahydro-1H-3-benzazepine] | 158 to 6310 | IC50 (Ramos B cells): ≤ 1000 nM |
| CC(=O)c1ccc(OCc2cc(C)ccn2)c(-c2ccc3c(c2)CCNCC3)c1 [Example 4, 1-[4-{[(4-methyl-2-pyridinyl)methyl]oxy}-3-(2,3,4,5-tetrahydro-1H-3-benzazepin-7-yl)phenyl]ethanone] |  | IC50 (Ramos B cells): ≤ 1000 nM |
| COc1ccnc(COc2ccccc2-c2ccc3c(c2)CCNCC3)c1 [Example 7, 7-[2-({[4-(methyloxy)-2-pyridinyl]methyl}oxy)phenyl]-2,3,4,5-tetrahydro-1H-3-benzazepine] | 158 to 6310 |  |
| COc1cccc(OCc2cc(C)ccn2)c1-c1ccc2c(c1)CNCC2 [Example 11, 7-(2-(methyloxy)-6-{[(4-methyl-2-pyridinyl)methyl]oxy}phenyl)-1,2,3,4-tetrahydroisoquinoline] | 158 to 6310 |  |
| CCOc1ccc(OCc2cc(C)ccn2)c(-c2ccc3c(c2)CNCC3)c1 [Example 12, 7-(5-(ethyloxy)-2-{[(4-methyl-2-pyridinyl)methyl]oxy}phenyl)-1,2,3,4-tetrahydroisoquinoline] | 158 to 6310 |  |
| Cc1ccnc(COc2ccc(C(F)(F)F)cc2-c2ccc3c(c2)CNCC3)c1 [Example 15, 7-[2-{[(4-methyl-2-pyridinyl)methyl]oxy}-5-(trifluoromethyl)phenyl]-1,2,3,4-tetrahydroisoquinoline] | 158 to 6310 |  |
| COc1ccc(OCc2cc(C)ccn2)c(-c2ccc3c(c2)CNCC3)c1 [Example 16, 7-(5-(methyloxy)-2-{[(4-methyl-2-pyridinyl)methyl]oxy}phenyl)-1,2,3,4-tetrahydroisoquinoline] | 158 to 6310 |  |
| Cc1ccnc(COc2ccc(C(C)(C)C)cc2-c2ccc3c(c2)CNCC3)c1 [Example 17, 7-(5-(1,1-dimethylethyl)-2-{[(4-methyl-2-pyridinyl)methyl]oxy}phenyl)-1,2,3,4-tetrahydroisoquinoline] | 158 to 6310 |  |
| COc1ccc(OCc2cnccn2)c(-c2ccc3c(c2)CCNCC3)c1 [Example 20, 7-{5-(methyloxy)-2-[(2-pyrazinylmethyl)oxy]phenyl}-2,3,4,5-tetrahydro-1H-3-benzazepine, trifluoroacetate] | 158 to 6310 |  |
| CC(=O)c1ccc(OCc2cc(C)ccn2)c(-c2ccc3c(c2)CCNCC3)c1 [Example 24, 1-[4-{[(4-methyl-2-pyridinyl)methyl]oxy}-3-(2,3,4,5-tetrahydro-1H-3-benzazepin-7-yl)phenyl]ethanone, trifluoroacetate] | 158 to 6310 |  |
| CCc1ccnc(COc2ccc(C)nc2-c2ccc3c(c2)CCNCC3)c1 [Example 33, 7-(3-{[(4-ethyl-2-pyridinyl)methyl]oxy}-6-methyl-2-pyridinyl)-2,3,4,5-tetrahydro-1H-3-benzazepine] | 158 to 6310 |  |
| Cc1ccnc(COc2ccc(C(C)(C)C)nc2-c2ccc3c(c2)CCNCC3)c1 [Example 34, 7-(6-(1,1-dimethylethyl)-3-{[(4-methyl-2-pyridinyl)methyl]oxy}-2-pyridinyl)-2,3,4,5-tetrahydro-1H-3-benzazepine] | 158 to 6310 |  |
| COc1ccc(OCc2ccccn2)c(-c2ccc3c(c2)CCNCC3)c1 [Example 37, 7-{5-(methyloxy)-2-[(2-pyridinylmethyl)oxy]phenyl}-2,3,4,5-tetrahydro-1H-3-benzazepine] | 158 to 6310 |  |
| CC(=O)c1ccc(OCc2ccccn2)c(-c2ccc3c(c2)CNCC3)c1 [Example 38, 1-[4-[(2-pyridinylmethyl)oxy]-3-(1,2,3,4-tetrahydro-7-isoquinolinyl)phenyl]ethanone] | 158 to 6310 |  |
| Clc1ccc(OCc2ccccn2)c(-c2ccc3c(c2)CNCC3)c1 [Example 46, 7-{5-chloro-2-[(2-pyridinylmethyl)oxy]phenyl}-1,2,3,4-tetrahydroisoquinoline] | 158 to 6310 |  |
| Cc1ccnc(COc2ccc(Cl)nc2-c2ccc3c(c2)CNCC3)c1 [Example 49, 7-(6-chloro-3-{[(4-methyl-2-pyridinyl)methyl]oxy}-2-pyridinyl)-1,2,3,4-tetrahydroisoquinoline] | 158 to 6310 |  |
| COc1cc(Nc2ncc(F)c(Nc3ccc4c(n3)N(COP(=O)(O)O)C(=O)C(C)(C)O4)n2)cc(OC)c1OC [Example R788, fostamatinib disodium] |  | therapeutic effect ([1]; patients with DLBCL and CLL/SLL): therapeutic benefit; tolerability ([1]; patients with relapsed or refractory B-Cell NHL): well-tolerated |

Continued, in another order:

| IC50 (Ramos B cells; Ramos) [nM] | Compound | other results |
| --- | --- | --- |
| 158 to 6310 | Cc1ccnc(COc2ccc(F)cc2-c2ccc3c(c2)CNCC3)c1 [Example 6, 7-(5-fluoro-2-{[(4-methyl-2-pyridinyl)methyl]oxy}phenyl)-1,2,3,4-tetrahydroisoquinoline] |  |
| 158 to 6310 | Cc1ccnc(COc2ccc(C)cc2-c2ccc3c(c2)CNCC3)c1 [Example 10, 7-(5-methyl-2-{[(4-methyl-2-pyridinyl)methyl]oxy}phenyl)-1,2,3,4-tetrahydroisoquinoline] |  |
| 158 to 6310 | Cc1ccnc(COc2ccc(C)nc2-c2ccc3c(c2)CCNCC3)c1 [Example 19, 7-(6-methyl-3-{[(4-methyl-2-pyridinyl)methyl]oxy}-2-pyridinyl)-2,3,4,5-tetrahydro-1H-3-benzazepine, trifluoroacetate] |  |
| 158 to 6310 | COc1ccc(OCc2cc(C)ccn2)c(-c2ccc3c(c2)CCNCC3)c1 [Example 22, 7-(5-(methyloxy)-2-{[(4-methyl-2-pyridinyl)methyl]oxy}phenyl)-2,3,4,5-tetrahydro-1H-3-benzazepine, trifluoroacetate] |  |
| 158 to 6310 | Cc1ccnc(COc2ccc(F)cc2-c2ccc3c(c2)CCNCC3)c1 [Example 26, 7-(5-fluoro-2-{[(4-methyl-2-pyridinyl)methyl]oxy}phenyl)-2,3,4,5-tetrahydro-1H-3-benzazepine] |  |
| 158 to 6310 | Cc1ccnc(COc2ccc(C)cc2-c2ccc3c(c2)CCNCC3)c1 [Example 27, 7-(5-methyl-2-{[(4-methyl-2-pyridinyl)methyl]oxy}phenyl)-2,3,4,5-tetrahydro-1H-3-benzazepine] |  |
| 158 to 6310 | CCOc1ccc(OCc2cc(C)ccn2)c(-c2ccc3c(c2)CCNCC3)c1 [Example 28, 7-(5-(ethyloxy)-2-{[(4-methyl-2-pyridinyl)methyl]oxy}phenyl)-2,3,4,5-tetrahydro-1H-3-benzazepine] |  |
| 158 to 6310 | Cc1ccnc(COc2ccc(C#N)cc2-c2ccc3c(c2)CCNCC3)c1 [Example 30, 4-{[(4-methyl-2-pyridinyl)methyl]oxy}-3-(2,3,4,5-tetrahydro-1H-3-benzazepin-7-yl)benzonitrile] |  |
| 158 to 6310 | Cc1ccnc(COc2ccc(C(F)(F)F)cc2-c2ccc3c(c2)CCNCC3)c1 [Example 31, 7-[2-{[(4-methyl-2-pyridinyl)methyl]oxy}-5-(trifluoromethyl)phenyl]-2,3,4,5-tetrahydro-1H-3-benzazepine] |  |
| 158 to 6310 | Cc1ccnc(COc2ccc(C(C)(C)C)cc2-c2ccc3c(c2)CCNCC3)c1 [Example 32, 7-(5-(1,1-dimethylethyl)-2-{[(4-methyl-2-pyridinyl)methyl]oxy}phenyl)-2,3,4,5-tetrahydro-1H-3-benzazepine] |  |
| 158 to 6310 | CCc1ccnc(COc2ccc(C(C)=O)cc2-c2ccc3c(c2)CCNCC3)c1 [Example 35, 1-[4-{[(4-ethyl-2-pyridinyl)methyl]oxy}-3-(2,3,4,5-tetrahydro-1H-3-benzazepin-7-yl)phenyl]ethanone] |  |
| 158 to 6310 | CCOc1ccnc(COc2ccc(C(C)=O)cc2-c2ccc3c(c2)CCNCC3)c1 [Example 36, 1-[4-({[4-(ethyloxy)-2-pyridinyl]methyl}oxy)-3-(2,3,4,5-tetrahydro-1H-3-benzazepin-7-yl)phenyl]ethanone] |  |
| 158 to 6310 | CNC(=O)c1ccc(OCc2cc(C)ccn2)c(-c2ccc3c(c2)CCNCC3)c1 [Example 39, N-methyl-4-{[(4-methyl-2-pyridinyl)methyl]oxy}-3-(2,3,4,5-tetrahydro-1H-3-benzazepin-7-yl)benzamide] |  |
| 158 to 6310 | Cc1ccnc(COc2ccc(C(=O)N(C)C)cc2-c2ccc3c(c2)CNCC3)c1 [Example 41, N,N-dimethyl-4-{[(4-methyl-2-pyridinyl)methyl]oxy}-3-(1,2,3,4-tetrahydro-7-isoquinolinyl)benzamide] |  |
| 158 to 6310 | Cc1ccnc(COc2ccc(Cl)cc2-c2ccc3c(c2)CCNCC3)c1 [Example 45, 7-(5-chloro-2-{[(4-methyl-2-pyridinyl)methyl]oxy}phenyl)-2,3,4,5-tetrahydro-1H-3-benzazepine] |  |
| 158 to 6310 | Cc1ccnc(COc2ccc(Cl)nc2-c2ccc3c(c2)CCNCC3)c1 [Example 48, 7-(6-chloro-3-{[(4-methyl-2-pyridinyl)methyl]oxy}-2-pyridinyl)-2,3,4,5-tetrahydro-1H-3-benzazepine] |  |
